# Test results: US20240165097A1, “PHARMACEUTICAL COMPOSITION FOR THE TREATMENT OF ALZHEIMER'S DISEASE OR DEMENTIA” (Heptares Therapeutics Limited, priority 2021, published 2024)
# “And” between values parts separate entries of the source, which are not always exact repeats. Identical values can stand only once. Like-named read-outs stand apart in the source and are kept apart here.
# Legend:
# [1] = tested on: patients with mild-to-moderate AD; test: Example D: twelve-item neuropsychiatric inventory (NPI-12); format: in vivo, human
# Procedure: Exploratory PD effects of HTL0018318 were examined via both behavioural (Cogstate neuropsychological test battery [NTB]) tests of cognitive function and electrophysiological (electroencephalogram [EEG] and evoked response potentials [ERPs]) biomarkers. Further details of each biomarker/test and outcome variables are provided below. Twelve-item neuropsychiatric inventory (NPI-12) scores were used to evaluate neuropsychiatric symptoms.
# Statistical evaluation was performed using Statistical analysis software (SAS®, SAS Institute, Cary, NC). Changes from baseline in vital signs were analysed using a mixed model for repeated measures with fixed effects for baseline, treatment, time-point and treatment by time-point interaction. The exploratory PD endpoints were analysed using an analysis of covariance with change from baseline as the dependent variable, and baseline and treatment as covariates. The least square means (LSM) for each dose (and difference from placebo) are presented with the 90% CI, P-value, and ES. ES was calculated as the LSM difference from placebo divided by the pooled standard deviation. PD data were considered clinically meaningful when P-values were <0.10 and ESs were >0.4 (ie, moderate to large ES).
# [2] = 15 mg HTL0018318 + donepezil vs Placebo
# [3] = 15 mg HTL0018318 alone vs 15 mg HTL0018318 donepezil
# [4] = 15 mg HTL0018318 alone vs Placebo
# [5] = 15 mg and 25 mg, in combination with or without donepezil
# [6] = 15 mg in combination with donepezil
# [7] = 15 mg in combination with donepezil (5 days)
# [8] = 15 mg without donepezil (5 days)
# [9] = 25 mg HTL0018318 + donepezil vs Placebo
# [10] = 25 mg HTL0018318 alone vs 25 mg HTL0018318 donepezil
# [11] = 25 mg HTL0018318 alone vs Placebo
# [12] = 25 mg in combination with donepezil
# [13] = 25 mg in combination with donepezil (5 days)
# [14] = 25 mg without donepezil (5 days)
# [15] = 25 mg without donepezil vs in combination with donepezil
# Procedure for healthy elderly subjects: The study was run in three cohorts to allow within study modification of the dose of HTL0018318 in the event that an unexpected interaction occurred.
# HTL0018318 was administered orally as an aqueous solution in 100 ml. Water was used as placebo. To mask the difference in taste between HTL0018318 and placebo, a peppermint strip (Listerine) was administered one minute before and after the administration of the oral solution.
# A subset of AEs was created that have a possible relation to increased cholinergic stimulation, being: hyperhidrosis, salivary hypersecretion, hypertension, tachycardia, bradycardia, nausea, diarrhoea, vomiting, constipation, insomnia, dizziness, muscle spasms, hot flush and cold sweat.
# Systolic and diastolic blood pressure and pulse rate, all measured in supine and standing position, safety laboratory, electrocardiogram (ECG), and 24-hour Holter ECG were performed.
# Saliva production was assessed by measuring the change in weight of three Salivette® dental rolls put into the oral cavity for 3 minutes. Pulmonary function was measured using the Spirostik (Accuramed), a PC-based open spirometry system.
# To this end a mixed model analysis of variance was used with treatment, period, time, treatment by period, period by time, treatment by time and treatment by period by time as fixed factors. Subject, subject by period and subject by time were random factors and the pre-HTL0018318 baseline measurement per period was a covariate. In these analysis models, all means are estimated (least square means, LSM). Statistical analysis was conducted with SAS 9.4 for Windows (SAS Institute Inc., Cary, NC, USA). […] Analyses were performed for 15 mg and 25 mg HTL0018318 dose levels separately.
smiles,measurement,setting,value
"CCOC(=O)N1C2CCC1CC(N1CCC3(CC1)CNC(=O)C3)C2 (centres unmarked) [HTL0018318, ethyl 3-(3-oxo-2,8-diazaspiro[4.5]dec-8-yl)-8-azabicyclo[3.2.1]octane-8-carboxylate]","NPI-12 total score, ES",[1]; 5 mg,-0.73
same,"NPI-12 total score, LSM difference from placebo",[1]; 5 mg,−1.79
same,"NPI-12 total score, ES",[1]; 15 mg,−0.54
same,"NPI-12 total score, ES",[1]; 25 mg,−0.53
same,"FEV1/FVC, contrast estimate",healthy elderly subjects; [2],1.052%
same,"FEV 1 second, contrast estimate",healthy elderly subjects; [2],0.043 L
same,"FVC, contrast estimate",healthy elderly subjects; [2],0.03719 L
same,"LSEQ: Awake following sleep, contrast estimate",healthy elderly subjects; [2],3.50
same,"LSEQ: Behaviour after wake, contrast estimate",healthy elderly subjects; [2],1.51
same,"LSEQ: Getting to sleep, contrast estimate",healthy elderly subjects; [2],1.59
same,"LSEQ: Quality of sleep, contrast estimate",healthy elderly subjects; [2],2.42
same,"PEF, contrast estimate",healthy elderly subjects; [2],0.339 L/s
same,"Saliva, contrast estimate",healthy elderly subjects; [2],0.707 g
same,"VAS Alertness, contrast estimate",healthy elderly subjects; [2],−0.70 mm
same,"VAS Calmness, contrast estimate",healthy elderly subjects; [2],−2.37 mm
same,"VAS Mood, contrast estimate",healthy elderly subjects; [2],−0.24 mm
same,"VAS Nausea, contrast estimate",healthy elderly subjects; [2],−0.08 log(mm)
same,"FEV1/FVC, contrast estimate",healthy elderly subjects; [3],−0.886%
same,"FEV 1 second, contrast estimate",healthy elderly subjects; [3],0.127 L
same,"FVC, contrast estimate",healthy elderly subjects; [3],0.1702 L
same,"LSEQ: Awake following sleep, contrast estimate",healthy elderly subjects; [3],−1.93
same,"LSEQ: Behaviour after wake, contrast estimate",healthy elderly subjects; [3],−0.85
same,"LSEQ: Getting to sleep, contrast estimate",healthy elderly subjects; [3],−0.79
same,"LSEQ: Quality of sleep, contrast estimate",healthy elderly subjects; [3],−0.26
same,"PEF, contrast estimate",healthy elderly subjects; [3],-0.343 L/s
same,"Saliva, contrast estimate",healthy elderly subjects; [3],-0.554 g
same,"VAS Alertness, contrast estimate",healthy elderly subjects; [3],−0.46 mm
same,"VAS Calmness, contrast estimate",healthy elderly subjects; [3],−0.20 mm
same,"VAS Mood, contrast estimate",healthy elderly subjects; [3],−0.03 mm
same,"VAS Nausea, contrast estimate",healthy elderly subjects; [3],−0.01 log(mm)
same,"FEV1/FVC, contrast estimate",healthy elderly subjects; [4],−0.327%
same,"FEV 1 second, contrast estimate",healthy elderly subjects; [4],0.153 L
same,"FVC, contrast estimate",healthy elderly subjects; [4],0.2035 L
same,"LSEQ: Awake following sleep, contrast estimate",healthy elderly subjects; [4],−1.72
same,"LSEQ: Behaviour after wake, contrast estimate",healthy elderly subjects; [4],−1.00
same,"LSEQ: Getting to sleep, contrast estimate",healthy elderly subjects; [4],0.82
same,"LSEQ: Quality of sleep, contrast estimate",healthy elderly subjects; [4],−5.14
same,"PEF, contrast estimate",healthy elderly subjects; [4],0.282 L/s
same,"Saliva, contrast estimate",healthy elderly subjects; [4],0.498 g
same,"VAS Alertness, contrast estimate",healthy elderly subjects; [4],−1.96 mm
same,"VAS Calmness, contrast estimate",healthy elderly subjects; [4],−3.17 mm
same,"VAS Mood, contrast estimate",healthy elderly subjects; [4],−2.93 mm
same,"VAS Nausea, contrast estimate",healthy elderly subjects; [4],−0.06 log(mm)
same,"number of AEs in gastrointestinal disorders class, viral gastroenteritis AEs excluded",healthy elderly subjects; 15 mg alone,1 AE
same,supine pulse rate compared with placebo,healthy elderly subjects; [5],no significant effects
same,supine systolic blood pressure compared with placebo,healthy elderly subjects; [5],no significant effects
same,"cholinergic AEs, percentage of subjects",healthy elderly subjects; [6],13%
same,"nausea reports, viral gastroenteritis AEs excluded",healthy elderly subjects; [6],one subject
same,supine pulse rate,healthy elderly subjects; [6],64 bpm
same,"All AEs, percentage of subjects",healthy elderly subjects; [7],50% ( 4/8 subjects)
same,"Gastrointestinal disorders, percentage of subjects",healthy elderly subjects; [7],13% (⅛ subjects)
same,"Neurological disorders, percentage of subjects",healthy elderly subjects; [7],13% (⅛ subjects)
same,"supine pulse rate, mean difference",healthy elderly subjects; 15 mg in combination with donepezil vs without donepezil,3.3 bpm
same,"cholinergic AEs, percentage of subjects",healthy elderly subjects; 15 mg without donepezil,0%
same,supine pulse rate,healthy elderly subjects; 15 mg without donepezil,67 bpm
same,"All AEs, percentage of subjects",healthy elderly subjects; [8],43% ( 3/7 subjects)
same,"Gastrointestinal disorders, percentage of subjects",healthy elderly subjects; [8],14% ( 1/7 subjects)
same,"Neurological disorders, percentage of subjects",healthy elderly subjects; [8],14% ( 1/7 subjects)
same,delta pulse rate,healthy elderly subjects; 15 mg without donepezil vs in combination with donepezil,no significant changes
same,"number of AEs in gastrointestinal disorders class, viral gastroenteritis AEs excluded",healthy elderly subjects; 15 mg+donepezil,3 AEs
same,"FEV1/FVC, contrast estimate",healthy elderly subjects; [9],−0.399%
same,"FEV 1 second, contrast estimate",healthy elderly subjects; [9],0.085 L
same,"FVC, contrast estimate",healthy elderly subjects; [9],0.1784 L
same,"LSEQ: Awake following sleep, contrast estimate",healthy elderly subjects; [9],0.52
same,"LSEQ: Behaviour after wake, contrast estimate",healthy elderly subjects; [9],−0.80
same,"LSEQ: Getting to sleep, contrast estimate",healthy elderly subjects; [9],−0.74
same,"LSEQ: Quality of sleep, contrast estimate",healthy elderly subjects; [9],−1.37
same,"PEF, contrast estimate",healthy elderly subjects; [9],0.273 L/s
same,"Saliva, contrast estimate",healthy elderly subjects; [9],0.910 g
same,"VAS Alertness, contrast estimate",healthy elderly subjects; [9],−1.49 mm
same,"VAS Calmness, contrast estimate",healthy elderly subjects; [9],−1.67 mm
same,"VAS Mood, contrast estimate",healthy elderly subjects; [9],−0.38 mm
same,"VAS Nausea, contrast estimate",healthy elderly subjects; [9],−0.04 log(mm)
same,"FEV1/FVC, contrast estimate",healthy elderly subjects; [10],2.491%
same,"FEV 1 second, contrast estimate",healthy elderly subjects; [10],0.008 L
same,"FVC, contrast estimate",healthy elderly subjects; [10],-.11255 L
same,"LSEQ: Awake following sleep, contrast estimate",healthy elderly subjects; [10],0.93
same,"LSEQ: Behaviour after wake, contrast estimate",healthy elderly subjects; [10],1.86
same,"LSEQ: Getting to sleep, contrast estimate",healthy elderly subjects; [10],1.72
same,"LSEQ: Quality of sleep, contrast estimate",healthy elderly subjects; [10],6.49
same,"PEF, contrast estimate",healthy elderly subjects; [10],0.047 L/s
same,"Saliva, contrast estimate",healthy elderly subjects; [10],-0.349 g
same,"VAS Alertness, contrast estimate",healthy elderly subjects; [10],0.66 mm
same,"VAS Calmness, contrast estimate",healthy elderly subjects; [10],−0.07 mm
same,"VAS Mood, contrast estimate",healthy elderly subjects; [10],0.55 mm
same,"VAS Nausea, contrast estimate",healthy elderly subjects; [10],−0.03 log(mm)
same,"FEV1/FVC, contrast estimate",healthy elderly subjects; [11],1.600%
same,"FEV 1 second, contrast estimate",healthy elderly subjects; [11],0.077 L
same,"FVC, contrast estimate",healthy elderly subjects; [11],0.06192 L
same,"LSEQ: Awake following sleep, contrast estimate",healthy elderly subjects; [11],−1.85
same,"LSEQ: Behaviour after wake, contrast estimate",healthy elderly subjects; [11],−0.60
same,"LSEQ: Getting to sleep, contrast estimate",healthy elderly subjects; [11],1.01
same,"LSEQ: Quality of sleep, contrast estimate",healthy elderly subjects; [11],−2.18
same,"PEF, contrast estimate",healthy elderly subjects; [11],0.606 L/s
same,"Saliva, contrast estimate",healthy elderly subjects; [11],0.906 g
same,"VAS Alertness, contrast estimate",healthy elderly subjects; [11],−1.63 mm
same,"VAS Calmness, contrast estimate",healthy elderly subjects; [11],−2.34 mm
same,"VAS Mood, contrast estimate",healthy elderly subjects; [11],−2.49 mm
same,"VAS Nausea, contrast estimate",healthy elderly subjects; [11],−0.05 log(mm)
same,"number of AEs in gastrointestinal disorders class, viral gastroenteritis AEs excluded",healthy elderly subjects; 25 mg alone,3 AEs
same,"cholinergic AEs, percentage of subjects",healthy elderly subjects; [12],69%
same,delta pulse rate (standing from supine),healthy elderly subjects; [12],12 bpm and 10 bpm
same,supine pulse rate,healthy elderly subjects; [12],64 bpm
same,supine systolic blood pressure,healthy elderly subjects; [12],120 mm Hg
same,"All AEs, percentage of subjects",healthy elderly subjects; [13],88% ( 14/16 subjects)
same,"Gastrointestinal disorders, percentage of subjects",healthy elderly subjects; [13],25% ( 4/16 subjects)
same,"Neurological disorders, percentage of subjects",healthy elderly subjects; [13],38% ( 6/16 subjects)
same,"delta pulse rate, mean difference",healthy elderly subjects; 25 mg in combination with donepezil vs placebo in combination with donepezil,−3.4 bpm
same,"supine pulse rate, mean difference",healthy elderly subjects; 25 mg in combination with donepezil vs without donepezil,1.5 bpm
same,"cholinergic AEs, percentage of subjects",healthy elderly subjects; 25 mg without donepezil,67%
same,delta pulse rate (standing from supine),healthy elderly subjects; 25 mg without donepezil,10 bpm and 12 bpm
same,supine pulse rate,healthy elderly subjects; 25 mg without donepezil,66 bpm
same,supine systolic blood pressure,healthy elderly subjects; 25 mg without donepezil,118 mm Hg
same,"All AEs, percentage of subjects",healthy elderly subjects; [14],92% ( 11/12 subjects)
same,"Gastrointestinal disorders, percentage of subjects",healthy elderly subjects; [14],17% ( 2/12 subjects)
same,"Neurological disorders, percentage of subjects",healthy elderly subjects; [14],50% ( 6/12 subjects)
same,"delta pulse rate, mean difference",healthy elderly subjects; [15],−1.6 bpm
same,"supine systolic blood pressure, mean difference",healthy elderly subjects; [15],1.6 mm Hg
same,"delta pulse rate, mean difference",healthy elderly subjects; 25 mg without donepezil vs placebo without donepezil,−3.7 bpm
same,"number of AEs in gastrointestinal disorders class, viral gastroenteritis AEs excluded",healthy elderly subjects; 25 mg+donepezil,4 AEs
same,"laboratory tests, ECG assessment and 24-hour Holter ECG","healthy elderly subjects; 15 or 25 mg, with and without donepezil",No clinically significant changes
same,"standing systolic BP, supine and standing diastolic BP, standing-supine BP, standing pulse rate",healthy elderly subjects; HTL0018318 in combination with donepezil vs HTL0018318 alone,no significant changes
same,"VAS alertness, calmness, mood, and nausea",healthy elderly subjects; HTL0018318 in combination with donepezil vs without donepezil,no statistically significant effects
same,intensity and seriousness of AEs,healthy elderly subjects; all treatments of the study,mild or moderate in intensity and there were no serious adverse events
same,tolerability,healthy elderly subjects; multiple doses in combination with donepezil,generally well tolerated
